Patent publication US20220218664A1, “DRUG AND METHOD FOR TREATING OR PREVENTING COMPLICATIONS FROM DIABETES, USING SAID DRUG” (TMS Co., Ltd., priority 2019, published 2022)

Assays:
Format in all cases: in vivo, C57BL/6J male mice
malondialdehyde: MDA = assay: Oxidative stress (MDA, TBARS assay) in sciatic nerve; conditions: 10 mg/kg i.p. once a day, 4th week
Method: (§1) 9-week-old C57BL/6J male mice were purchased and familiarized with an animal facility for 1 week. 200 mg/kg of streptozotocin (streptozotocin; STZ) was administered […] into the peritoneal cavity of 10-week-old mice to prepare streptozotocin-induced diabetic mice (hereinafter also referred to as “STZ administration week 0”). One week after the administration of streptozotocin, blood was collected from the tail vein of the mice, and the blood glucose level (BS) was measured using an automatic blood glucose measuring device (product name: Medisafe (trademark) Mini GR-102, made by Terumo (Co)). Mice having a blood glucose level of 400 mg/dL or more were determined to be diabetic mice.
(§2) The SMTP-44D groups, the edaravone group, and the pregabalin group were administered SMTP-44D (0.3 mg/kg, 3 mg/kg, or 30 mg/kg doses, respectively), edaravone (10 mg/kg dose), or pregabalin (10 mg/kg dose) into the peritoneal cavity once a day for 3 consecutive weeks from the day following the first week to the fourth week after STZ administration.
The sciatic nerves of the above-mentioned STZ group, SMTP-44D group (30 mg/kg), edaravone group, pregabalin group, and control group mice in the 4th week were homogenized using an RIPA buffer containing a protease inhibitor cocktail. Moreover, centrifugation was conducted at 4° C. for 15 minutes at 1600 g, and the supernatant was collected and used for measuring MDA (μM) and total protein concentration (μg/mL), respectively. MDA was measured using a TBARS Assay Kit. The total protein concentration was measured using a Pierce (Trademark) BCA Protein Assay Kit. Oxidative stress levels (nmol/mg protein) were calculated from MDA (μM) and the total protein concentration (μg/mL).

[1] = test system: streptozotocin-induced diabetic mice; assay: Blood glucose level (BS) in streptozotocin-induced diabetic mice; conditions: 10 mg/kg i.p. once a day
Method: as §1, §2
(§3) For the above-mentioned STZ group, SMTP-44D groups, edaravone group, pregabalin group, and control group mice, the following measurements were conducted every week from the 0th week, which began on the day when streptozotocin (STZ) was administered, to the 4th week (that is, a total of five times). As algesia tests, the following von Frey test and hot plate test were conducted, and hind plantar blood flow, body weight (BW), and blood glucose level (BS) were measured using the above-mentioned automatic blood glucose measure device. Note, for example, the 0th week represents the 0th day. That is, the measurements were conducted on the 0th, 7th, 14th, 21st, and 28th days.

TNF-α = assay: Inflammatory cytokine TNF-α in sciatic nerve (ELISA); conditions: 10 mg/kg i.p. once a day, 4th week
Method: as §1, §2
(§4) The sciatic nerves of the above-mentioned STZ group, SMTP-44D group (30 mg/kg), edaravone group, pregabalin group, and control group mice on the 4th week were homogenized using the RIPA buffer containing a protease inhibitor cocktail. Moreover, centrifugation was conducted at 4° C. for 15 minutes at 10,000 g, and the supernatant was collected and used for measuring TNF-α concentration (pg/mL), IL-1β concentration (pg/mL), IL-6 concentration (pg/mL), and total protein concentration (μg/mL), respectively. An ELISA assay kit was used for the TNF-α, IL-1β, and IL-6 concentrations. The total protein concentration was measured by using a Pierce (trademark) BCA Protein Assay Kit. The inflammatory cytokine level (pg/mg protein) in the total protein was calculated from the TNF-α concentration (pg/mL), IL-1β concentration (pg/mL), and IL-6 concentration (pg/mL), and total protein concentration (μg/mL).

[2] = Body weight (BW) in streptozotocin-induced diabetic mice; conditions: 10 mg/kg i.p. once a day
Method: as §1, §2, §3

IL-6 = assay: Inflammatory cytokine IL-6 in sciatic nerve (ELISA); conditions: 10 mg/kg i.p. once a day, 4th week
Method: as §1, §2, §4

IL-1β = assay: Inflammatory cytokine IL-1β in sciatic nerve (ELISA); conditions: 10 mg/kg i.p. once a day, 4th week
Method: as §1, §2, §4

[3] = test system: streptozotocin-induced diabetic mice; assay: Thickness and G-ratio of myelin in the sciatic nerve; conditions: 10 mg/kg i.p. once a day, 4th week
Method: as §1, §2
The above-mentioned STZ group, SMTP-44D (30 mg/kg) group, edaravone group, pregabalin group, and control group mice in the 4th week were dissected to remove the sciatic nerves. The sciatic nerves were fixed using neutral buffered formalin and embedded using an Epon resin, and then semi-thin segments were formed and dyed using toluidine blue. The cross sections of the sciatic nerves in the respective specimens were examined using a microscope equipped with a digital camera at 400× magnification. The thickness of myelin ((diameter of axon including myelin diameter of axon)/2) and G-ratio (diameter of axon/diameter of axon including myelin) were measured.

[4] = test system: streptozotocin-induced diabetic mice; assay: Hot plate test: evaluating thermal stimulus; conditions: 10 mg/kg i.p. once a day
Method: as §1, §2
The above-mentioned STZ group, SMTP-44D groups, edaravone group, pregabalin group, and control group mice were put in grid-like boxes, respectively, and were left for 30 minutes. After having been left, an acrylic disc (diameter: 20 cm; height (that is, thickness of the acrylic disc): […]) was placed on an EC hot plate (model number: EC1200) maintained at 49 to 50° C., and the mice were put on the acrylic disc. The measurements were started after the mice landed on the EC hot plate. The times from the mice landing to their action to jump or lick their hind legs were evaluated as thermal thresholds (seconds: s). Note, to avoid burns on their plantae, the measurements were ceased 30 seconds after beginning. The measurements were conducted three times at 30-minute intervals. A mean value of three thermal thresholds (seconds: s) was calculated for 1 mouse, and then a mean value of the 12 mice for the respective groups was found.

[5] = 0th week (before dosing), listed as edaravone
[6] = 1st week (before dosing), listed as edaravone
[7] = 0th week (before dosing), listed as pregabalin
[8] = 1st week (before dosing), listed as pregabalin

CC1=NN(c2ccccc2)C(=O)C1 [Edaravone, edaravone]
MDA (oxidative stress) (malondialdehyde: MDA): 2.98 ± 0.39 nmol/mg protein
MDA (oxidative stress) (malondialdehyde: MDA; listed as edaravone): 2.98±0.39 nmol/mg protein
BS (blood glucose level) [1, 5]: 221.0 ± 7.3 mg/dL
BS (blood glucose level) ([1]; 1st week (before dosing)): 566.0 ± 32.6 mg/dL
BS (blood glucose level) [1, 6]: 566.0 ± 32.6 mg/dL
BS (blood glucose level) ([1]; 2nd week): 567.5 ± 28.0 mg/dL
BS (blood glucose level) ([1]; 2nd week, listed as edaravone): 567.5 ± 28.0 mg/dL
BS (blood glucose level) ([1]; 3rd week): 617.7 ± 373.3 mg/dL
BS (blood glucose level) ([1]; 3rd week, listed as edaravone): 617.7 ± 37.3 mg/dL
BS (blood glucose level) ([1]; 4th week): 565.3 ± 35.1 mg/dL
BS (blood glucose level) ([1]; 4th week, listed as edaravone): 565.3 ± 35.1 mg/dL
TNF-α (TNF-α): 12.45 ± 2.06 pg/mg protein
TNF-α (TNF-α; listed as edaravone): 12.45±2.06 pg/mg protein
Body weight decrease between the 0th week and 4th week [2]: 2.4 g
BW (body weight) ([2]; 0th week (before dosing)): 23.4 ± 0.3 g
BW (body weight) [2, 5]: 23.4 ± 0.3 g
BW (body weight) ([2]; 1st week (before dosing)): 21.9 ± 0.4 g
BW (body weight) [2, 6]: 21.9 ± 0.4 g
BW (body weight) ([2]; 2nd week): 21.6 ± 0.4 g
BW (body weight) ([2]; 2nd week, listed as edaravone): 21.6 ± 0.4 g
BW (body weight) ([2]; 3rd week): 21.3 ± 0.5 g
BW (body weight) ([2]; 3rd week, listed as edaravone): 21.3 ± 0.5 g
BW (body weight) ([2]; 4th week): 21.0 ± 0.5 g
BW (body weight) ([2]; 4th week, listed as edaravone): 21.0 ± 0.5 g
IL-6 (IL-6): 165.83 ± 10.21 pg/mg protein
IL-6 (IL-6; listed as edaravone): 165.83±10.21 pg/mg protein
IL-1β (IL-1β): 24.54 ± 4.52 pg/mg protein
IL-1β (IL-1β; listed as edaravone): 24.54±4.52 pg/mg protein
G-ratio [3]: 0.619 ± 0.005
Thickness of myelin [3]: 1.42 ± 0.02 μm
G-ratio ([3]; listed as edaravone): 0.619±0.005
Thickness of myelin ([3]; listed as edaravone): 1.42±0.02 μm
Hot plate test thermal threshold ([4]; 0th week (before dosing)): 20.8 ± 0.5 s
Hot plate test thermal threshold [4, 5]: 20.8 ± 0.5 s
Hot plate test thermal threshold ([4]; 1st week (before dosing)): 15.7 ± 0.8 s
Hot plate test thermal threshold [4, 6]: 15.7 ± 0.8 s
Hot plate test thermal threshold ([4]; 2nd week): 15.5 ± 1.2 s
Hot plate test thermal threshold ([4]; 2nd week, listed as edaravone): 15.5 ± 1.2 s
Hot plate test thermal threshold ([4]; 3rd week): 15.4 ± 0.9 s
Hot plate test thermal threshold ([4]; 3rd week, listed as edaravone): 15.4 ± 0.9 s
Hot plate test thermal threshold ([4]; 4th week): 16.0 ± 0.8 s
Hot plate test thermal threshold ([4]; 4th week, listed as edaravone): 16.0 ± 0.8 s

CC(C)C[C@H](CN)CC(=O)O [Pregabalin, pregabalin]
MDA (oxidative stress) (malondialdehyde: MDA): 4.02 ± 0.59 nmol/mg protein
MDA (oxidative stress) (malondialdehyde: MDA; listed as pregabalin): 4.02±0.59 nmol/mg protein
BS (blood glucose level) ([1]; 0th week (before dosing)): 192.2 ± 5.3 mg/dL
BS (blood glucose level) [1, 7]: 192.2 ± 5.3 mg/dL
BS (blood glucose level) ([1]; 1st week (before dosing)): 562.7 ± 25.6 mg/dL
BS (blood glucose level) [1, 8]: 562.7 ± 25.6 mg/dL
BS (blood glucose level) ([1]; 2nd week): 639.1 ± 44.7 mg/dL
BS (blood glucose level) ([1]; 2nd week, listed as pregabalin): 639.1 ± 44.7 mg/dL
BS (blood glucose level) ([1]; 3rd week, listed as pregabalin): 657.2 ± 38.7 mg/dL
BS (blood glucose level) ([1]; 4th week): 582.3 ± 38.2 mg/dL
BS (blood glucose level) ([1]; 4th week, listed as pregabalin): 582.3 ± 38.2 mg/dL
TNF-α (TNF-α): 14.53 ± 1.41 pg/mg protein
TNF-α (TNF-α; listed as pregabalin): 14.53±1.41 pg/mg protein
Body weight decrease between the 0th week and 4th week [2]: 1.4 g
BW (body weight) ([2]; 0th week (before dosing)): 21.8 ± 0.3 g
BW (body weight) [2, 7]: 21.8 ± 0.3 g
BW (body weight) ([2]; 1st week (before dosing)): 21.4 ± 0.3 g
BW (body weight) [2, 8]: 21.4 ± 0.3 g
BW (body weight) ([2]; 2nd week): 21.3 ± 0.4 g
BW (body weight) ([2]; 2nd week, listed as pregabalin): 21.3 ± 0.4 g
BW (body weight) ([2]; 3rd week): 21.0 ± 0.2 g
BW (body weight) ([2]; 3rd week, listed as pregabalin): 21.0 ± 0.2 g
BW (body weight) ([2]; 4th week): 20.4 ± 0.2 g
BW (body weight) ([2]; 4th week, listed as pregabalin): 20.4 ± 0.2 g
IL-6 (IL-6): 166.60 ± 13.57 pg/mg protein
IL-6 (IL-6; listed as pregabalin): 166.60±13.57 pg/mg protein
IL-1β (IL-1β): 58.04 ± 4.47 pg/mg protein
IL-1β (IL-1β; listed as pregabalin): 58.04±4.47 pg/mg protein
G-ratio ([3]; listed as Preaabalin): 0.665 ± 0.006
Thickness of myelin ([3]; listed as Preaabalin): 1.29 ± 0.03 μm
G-ratio ([3]; listed as pregabalin): 0.665±0.006
Thickness of myelin ([3]; listed as pregabalin): 1.29±0.03 μm
Hot plate test thermal threshold ([4]; 0th week (before dosing)): 22.2 ± 0.8 s
Hot plate test thermal threshold [4, 7]: 22.2 ± 0.8 s
Hot plate test thermal threshold ([4]; 1st week (before dosing)): 15.7 ± 0.7 s
Hot plate test thermal threshold [4, 8]: 15.7 ± 0.7 s
Hot plate test thermal threshold ([4]; 2nd week): 17.3 ± 1.1 s
Hot plate test thermal threshold ([4]; 2nd week, listed as pregabalin): 17.3 ± 1.1 s
Hot plate test thermal threshold ([4]; 3rd week): 17.7 ± 0.9 s
Hot plate test thermal threshold ([4]; 3rd week, listed as pregabalin): 17.7 ± 0.9 s
Hot plate test thermal threshold ([4]; 4th week): 17.9 ± 1.1 s
Hot plate test thermal threshold ([4]; 4th week, listed as pregabalin): 17.9 ± 1.1 s
